This note sets out measurements from patent publication US10793564B2, “Amino acid compounds and methods of use” (Pliant Therapeutics, Inc., priority 2018, dated 2020).

Usually IC50 stands for the midpoint of a concentration-inhibition curve.

recombinant human integrin αVβ6, sequence (P06756 31-992): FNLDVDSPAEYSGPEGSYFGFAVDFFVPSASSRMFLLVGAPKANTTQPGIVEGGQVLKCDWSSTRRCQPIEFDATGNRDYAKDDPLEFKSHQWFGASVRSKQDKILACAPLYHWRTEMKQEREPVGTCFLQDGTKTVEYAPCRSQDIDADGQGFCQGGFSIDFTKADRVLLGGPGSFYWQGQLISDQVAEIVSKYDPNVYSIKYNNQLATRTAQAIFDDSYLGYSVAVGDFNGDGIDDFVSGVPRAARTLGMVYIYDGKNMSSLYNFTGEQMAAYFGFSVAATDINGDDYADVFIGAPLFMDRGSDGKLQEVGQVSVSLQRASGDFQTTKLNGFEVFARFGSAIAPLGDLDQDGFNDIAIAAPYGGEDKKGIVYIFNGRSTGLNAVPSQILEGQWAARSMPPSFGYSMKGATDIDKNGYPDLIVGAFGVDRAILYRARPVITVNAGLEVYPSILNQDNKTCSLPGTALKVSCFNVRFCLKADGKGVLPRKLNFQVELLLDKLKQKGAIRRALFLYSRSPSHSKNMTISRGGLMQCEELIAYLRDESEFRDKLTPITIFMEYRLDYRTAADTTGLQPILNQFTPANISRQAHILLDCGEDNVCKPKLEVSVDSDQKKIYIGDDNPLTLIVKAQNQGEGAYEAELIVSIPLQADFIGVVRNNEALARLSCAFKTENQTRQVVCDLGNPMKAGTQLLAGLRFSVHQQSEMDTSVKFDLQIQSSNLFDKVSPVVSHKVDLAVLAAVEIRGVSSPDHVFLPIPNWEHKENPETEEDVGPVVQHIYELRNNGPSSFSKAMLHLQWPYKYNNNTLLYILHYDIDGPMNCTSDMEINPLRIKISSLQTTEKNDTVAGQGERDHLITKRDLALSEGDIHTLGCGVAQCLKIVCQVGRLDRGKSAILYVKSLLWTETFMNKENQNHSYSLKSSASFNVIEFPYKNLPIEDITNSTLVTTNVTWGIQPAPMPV
recombinant human integrin αVβ6, sequence (P18564 22-707): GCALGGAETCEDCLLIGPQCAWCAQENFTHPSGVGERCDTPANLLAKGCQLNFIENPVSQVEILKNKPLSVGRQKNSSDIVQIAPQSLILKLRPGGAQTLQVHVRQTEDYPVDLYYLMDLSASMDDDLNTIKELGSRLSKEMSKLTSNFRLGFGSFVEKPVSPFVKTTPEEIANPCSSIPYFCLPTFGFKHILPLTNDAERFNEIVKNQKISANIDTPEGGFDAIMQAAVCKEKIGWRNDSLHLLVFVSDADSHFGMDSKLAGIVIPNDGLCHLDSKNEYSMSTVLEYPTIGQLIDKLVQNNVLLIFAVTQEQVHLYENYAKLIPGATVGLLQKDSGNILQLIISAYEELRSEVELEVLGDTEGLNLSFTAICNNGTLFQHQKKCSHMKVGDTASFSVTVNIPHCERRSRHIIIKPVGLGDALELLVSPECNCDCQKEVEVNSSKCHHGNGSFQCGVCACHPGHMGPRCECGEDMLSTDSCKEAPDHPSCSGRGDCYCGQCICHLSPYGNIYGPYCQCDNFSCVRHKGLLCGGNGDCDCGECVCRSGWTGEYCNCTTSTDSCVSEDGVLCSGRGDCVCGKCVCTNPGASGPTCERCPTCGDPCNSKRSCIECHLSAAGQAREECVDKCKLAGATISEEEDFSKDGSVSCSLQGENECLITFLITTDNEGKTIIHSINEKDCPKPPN

This test has as its target recombinant human integrin αVβ6 (Homo sapiens (Human), UniProt P06756+P18564). Description: Solid phase integrin αVβ6 binding assay. The settings on record: inhibition of recombinant TGFβ1 LAP binding to coated integrin, IC50 presented in four ranges, read-out: αvβ6 Inhibition IC50 (nM) - range. How it is done:
(§1) Microplates were coated with recombinant human integrin αVβ6 (2 μg/mL) in PBS (100 μL/well 25° C., overnight). The coating solution was removed, washed with wash buffer (0.05% Tween 20; 0.5 mM MnCl2; in 1×TBS). The plate was blocked with 200 μL/well of Block Buffer (1% BSA; 5% sucrose; 0.5 mM MnCl2; in 1×TBS) at 37° C. for 2 h. Dilutions of testing compounds and recombinant TGFβ1 LAP (0.67 μg/mL) in binding buffer (0.05% BSA; 2.5% sucrose; 0.5 mM MnCl2; in 1×TBS) were added. The plate was incubated for 2 hours at 25° C., washed, and incubated for 1 hour with Biotin-Anti-hLAP. Bound antibody was detected by peroxidase-conjugated streptavidin. The IC50 values for testing compounds were calculated by a four-parameter logistic regression.
The compounds tested were compound samples prepared according to procedures described in the Synthetic Examples section, with the stereochemical purity as indicated in the Examples.
as §1, with “A third series of exemplary compounds was selected for testing in the solid phase integrin αVβ6 binding assay. The compounds tested were compound samples prepared according to procedures described in the Synthetic Examples section, with the stereochemical purity as indicated in the Examples. As in Example B1, microplates were” for “Microplates were”, “(0.67 g/mL)” for “(0.67 μg/mL)”
As to `O=C(O)[C@H](CCN(CCCCc1ccc2c(n1)NCCC2)CCOc1ccccc1)Nc1cc(-c2ccccc2)ncn1` [Compound 93, (S)-4-((2-phenoxyethyl) (4-(5,6,7,8-tetrahydro-1,8-naphthyridin-2-yl)butyl)amino)-2-((6-phenylpyrimidin-4-yl)amino) butanoic Acid], the IC50 was below 50 nM. Then `O=C(O)[C@H](CCN(CCCCc1ccc2c(n1)NCCC2)CCOc1ccccc1)Nc1ncc(C(F)(F)F)cn1` [Compound 89, (S)-4-((2-phenoxyethyl) (4-(5,6,7,8-tetrahydro-1,8-naphthyridin-2-yl)butyl)amino)-2-((5-(trifluoromethyl)pyrimidin-2-yl)amino) butanoic Acid], with below 50 nM.

In the case of `O=C(O)[C@H](CCN(CCCCc1ccc2c(n1)NCCC2)CCOC(F)F)Nc1ncnc2ccccc12` [Compound 35, (S)-4-((2-(difluoromethoxy)ethyl) (4-(5,6,7,8-tetrahydro-1,8-naphthyridin-2-yl)butyl)amino)-2-(quinazolin-4-ylamino) butanoic Acid], the IC50 is below 50 nM. Regarding `COCCN(CCCCc1ccc2c(n1)NCCC2)CC[C@H](Nc1cc(C)nc(C(F)(F)F)n1)C(=O)O` [Compound 26, (S)-4-((2-methoxyethyl) (4-(5,6,7,8-tetrahydro-1,8-naphthyridin-2-yl)butyl)amino)-2-((6-methyl-2-(trifluoromethyl)pyrimidin-4-yl)amino) butanoic Acid], the IC50 was below 50 nM. To `O=C(O)[C@H](CCN(CCCCc1ccc2c(n1)NCCC2)CCOc1ccccn1)Nc1ncnc2c(Cl)cccc12` [Compound 48, (S)-2-((8-chloroquinazolin-4-yl)amino)-4-((2-(pyridin-2-yloxy)ethyl) (4-(5,6,7,8-tetrahydro-1,8-naphthyridin-2-yl)butyl)amino) butanoic Acid] belongs below 50 nM. To `CCOCCN(CCCCc1ccc2c(n1)NCCC2)CC[C@H](Nc1ncnc2ccccc12)C(=O)O` [Compound 55, (S)-4-((2-ethoxyethyl) (4-(5,6,7,8-tetrahydro-1,8-naphthyridin-2-yl)butyl)amino)-2-(quinazolin-4-ylamino) butanoic Acid] belongs below 50 nM; to `O=C(O)[C@H](CCN(CCCCc1ccc2c(n1)NCCC2)CCOc1ccc(F)cc1)Nc1ncc(Br)cn1` [Compound 144, (S)-2-((5-bromopyrimidin-2-yl)amino)-4-((2-(4-fluorophenoxy)ethyl) (4-(5,6,7,8-tetrahydro-1,8-naphthyridin-2-yl)butyl)amino) butanoic Acid], 50 to 250 nM; to `O=C(O)[C@H](CCN(CCCCc1ccc2c(n1)NCCC2)CC(F)F)Nc1ncnc2ccccc12` [Compound 8, (S)-4-((2,2-difluoroethyl) (4-(5,6,7,8-tetrahydro-1,8-naphthyridin-2-yl)butyl)amino)-2-(quinazolin-4-ylamino) butanoic Acid], 50 to 250 nM. As for `CN(C)C(=O)CN(CCCCc1ccc2c(n1)NCCC2)CC[C@H](Nc1ncnc2ccccc12)C(=O)O` [Compound 64, (S)-4-((2-(dimethylamino)-2-oxoethyl) (4-(5,6,7,8-tetrahydro-1,8-naphthyridin-2-yl)butyl)amino)-2-(quinazolin-4-ylamino) butanoic Acid], the IC50 is below 50 nM. To `COC[C@@H](F)CN(CCCCc1ccc2c(n1)NCCC2)CC[C@H](Nc1ncnc2ccccc12)C(=O)O` [Compound 31, (S)-4-(((S)-2-fluoro-3-methoxypropyl) (4-(5,6,7,8-tetrahydro-1,8-naphthyridin-2-yl)butyl)amino)-2-(quinazolin-4-ylamino) butanoic Acid] belongs below 50 nM.

In the case of `Cc1ncccc1OCCN(CCCCc1ccc2c(n1)NCCC2)CC[C@H](Nc1ncnc2ccccc12)C(=O)O` [Compound 52, (S)-4-((2-((2-methylpyridin-3-yl)oxy)ethyl) (4-(5,6,7,8-tetrahydro-1,8-naphthyridin-2-yl)butyl)amino)-2-(quinazolin-4-ylamino) butanoic Acid], the 50% inhibitory concentration (IC50) is below 50 nM. Then `O=C(O)[C@H](CCN(CCCCc1ccc2c(n1)NCCC2)CC(F)F)Nc1ncc(Br)cn1` [Compound 96, (S)-2-((5-bromopyrimidin-2-yl)amino)-4-((2,2-difluoroethyl) (4-(5,6,7,8-tetrahydro-1,8-naphthyridin-2-yl)butyl)amino) butanoic Acid], with above 1000 nM; and `COCCN(CCCCc1ccc2c(n1)NCCC2)CC[C@H](Nc1ncnc2c(F)cccc12)C(=O)O` [Compound 20, (S)-2-((8-fluoroquinazolin-4-yl)amino)-4-((2-methoxyethyl) (4-(5,6,7,8-tetrahydro-1,8-naphthyridin-2-yl)butyl)amino) butanoic Acid], with below 50 nM. To `O=C(O)[C@H](CCN(CCCCc1ccc2c(n1)NCCC2)CCC(F)F)Nc1ccnc(C(F)(F)F)n1` [Compound 134, (S)-4-((3,3-difluoropropyl) (4-(5,6,7,8-tetrahydro-1,8-naphthyridin-2-yl)butyl)amino)-2-((2-(trifluoromethyl)pyrimidin-4-yl)amino) butanoic Acid] belongs 50 to 250 nM; to `O=C(O)[C@H](CCN(CCCCc1ccc2c(n1)NCCC2)CC(F)F)Nc1ccncn1` [Compound 120, (S)-4-((2,2-difluoroethyl) (4-(5,6,7,8-tetrahydro-1,8-naphthyridin-2-yl)butyl)amino)-2-(pyrimidin-4-ylamino) butanoic Acid], above 1000 nM. To `CO[C@H](C)CN(CCCCc1ccc2c(n1)NCCC2)CC[C@H](Nc1cc(-c2ccccc2)ncn1)C(=O)O` [Compound 80, (S)-4-(((R)-2-methoxypropyl) (4-(5,6,7,8-tetrahydro-1,8-naphthyridin-2-yl)butyl)amino)-2-((6-phenylpyrimidin-4-yl)amino) butanoic Acid] belongs below 50 nM; to `O=C(O)[C@H](CCN(CCCCc1ccc2c(n1)NCCC2)CCOc1ccccn1)Nc1ncnc2ccccc12` [Compound 49, (S)-4-((2-(pyridin-2-yloxy)ethyl) (4-(5,6,7,8-tetrahydro-1,8-naphthyridin-2-yl)butyl)amino)-2-(quinazolin-4-ylamino) butanoic Acid], below 50 nM; to `Cc1ccc(OCCN(CCCCc2ccc3c(n2)NCCC3)CC[C@H](Nc2nc(C)nc3cc(F)ccc23)C(=O)O)cn1` [Compound 56, (S)-2-((7-fluoro-2-methylquinazolin-4-yl)amino)-4-((2-((6-methylpyridin-3-yl)oxy)ethyl) (4-(5,6,7,8-tetrahydro-1,8-naphthyridin-2-yl)butyl)amino) butanoic Acid], below 50 nM. As for `O=C(O)[C@H](CCN(CCCCc1ccc2c(n1)NCCC2)CC(F)F)Nc1ncncc1-c1ccccc1` [Compound 119, (S)-4-((2,2-difluoroethyl) (4-(5,6,7,8-tetrahydro-1,8-naphthyridin-2-yl)butyl)amino)-2-((5-phenylpyrimidin-4-yl)amino) butanoic Acid], the IC50 was above 1000 nM.

Take `COCCN(CCCCc1ccc2c(n1)NCCC2)CC[C@H](Nc1ncnc2cccnc12)C(=O)O` [Compound 16, (S)-4-((2-methoxyethyl) (4-(5,6,7,8-tetrahydro-1,8-naphthyridin-2-yl)butyl)amino)-2-(pyrido[3,2-d]pyrimidin-4-ylamino) butanoic Acid]: the half-inhibitory concentration (IC50) was below 50 nM.

As for `COCCN(CCCCc1ccc2c(n1)NCCC2)CC[C@H](Nc1nc(C)nc2cc(F)ccc12)C(=O)O` [Compound 12, (S)-2-((7-fluoro-2-methylquinazolin-4-yl)amino)-4-((2-methoxyethyl) (4-(5,6,7,8-tetrahydro-1,8-naphthyridin-2-yl)butyl)amino) butanoic Acid], the half-maximal inhibitory concentration (IC50) was below 50 nM. To `CO[C@H](C)CN(CCCCc1ccc2c(n1)NCCC2)CC[C@H](Nc1ncnc2ccccc12)C(=O)O` [Compound 62, (S)-4-(((R)-2-methoxypropyl) (4-(5,6,7,8-tetrahydro-1,8-naphthyridin-2-yl)butyl)amino)-2-(quinazolin-4-ylamino) butanoic Acid] belongs below 50 nM; to `O=C(O)[C@H](CCN(CCCCc1ccc2c(n1)NCCC2)CC1(F)COC1)Nc1ncnc2ccccc12` [Compound 147, (S)-4-(((3-fluorooxetan-3-yl)methyl) (4-(5,6,7,8-tetrahydro-1,8-naphthyridin-2-yl)butyl)amino)-2-(quinazolin-4-ylamino) butanoic Acid], 50 to 250 nM. As for `COC[C@@H](F)CN(CCCCc1ccc2c(n1)NCCC2)CC[C@H](Nc1ncc(C(F)(F)F)cn1)C(=O)O` [Compound 85, (S)-4-(((S)-2-fluoro-3-methoxypropyl) (4-(5,6,7,8-tetrahydro-1,8-naphthyridin-2-yl)butyl)amino)-2-((5-(trifluoromethyl)pyrimidin-2-yl)amino) butanoic Acid], the IC50 fell in the range of 250 to 1000 nM.
